Assay results from PubChem BioAssay (NCI).
Values joined by “and” are separate entries in the source; they are usually repeats but may differ in a detail not shown here. Equal values may be shown once.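 Compound exposure: 48 hours, 5 concentrations, 96-well plates. GI50 marks 50% less growth. At the TGI there is no net growth.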

Columns and labels:
Assay in all cases: DTP human tumour cell line panel, 48 h
SNB-19 CNS = test system: SNB-19 CNS
HS 578T breast = test system: HS 578T breast
IGROV1 ovarian = test system: IGROV1 ovarian
SNB-75 CNS = test system: SNB-75 CNS
PC-3 prostate = test system: PC-3 prostate
HCT-116 colon = test system: HCT-116 colon
SF-539 CNS = test system: SF-539 CNS
TK-10 renal = test system: TK-10 renal

Row | Structure (SMILES) | GI50 (SNB-19 CNS) | TGI (SNB-19 CNS) [µM] | GI50 (HS 578T breast) | TGI (HS 578T breast) | GI50 (IGROV1 ovarian) | TGI (IGROV1 ovarian) | GI50 (SNB-75 CNS) | TGI (SNB-75 CNS) | GI50 (PC-3 prostate) | TGI (PC-3 prostate) [µM] | GI50 (HCT-116 colon) | TGI (HCT-116 colon) | GI50 (SF-539 CNS) | TGI (SF-539 CNS) | GI50 (TK-10 renal) | TGI (TK-10 renal) [µM]
1 | Cc1ccc(C(=O)c2sc3nc4c(cc3c2N)CCCC4)c(C)c1 | 4.68 µM | > 100 | 0.415 µM | > 100 µM | 1.23 µM | > 100 µM | 0.247 µM | 6.16 µM | 0.433 µM | > 100 | 0.26 µM | > 100 µM | 0.25 µM | 0.956 µM | 12.8 µM | > 100
2 | COc1cccc(-c2nn(-c3ccccc3)cc2-c2ccnc(NCCCNC(=O)c3cccc(C(F)(F)F)c3)c2)c1 | 6.03 µM | 31.2 | 5.6 µM | 36.9 µM | 7.59 µM | 32 µM | 17 µM | 57.8 µM | 3.18 µM | 24 | 3.81 µM | 16.1 µM | 2.92 µM | 8.29 µM | 7.33 µM | 31.2
3 | COc1cccc(/C=C/c2nc3c(cnn3-c3ccccc3)c(=O)[nH]2)c1 | > 51.9 µM | > 100 | 13.7 µM | > 100 µM | 13 µM | > 100 µM | > 25 µM | > 89.3 µM | > 100 µM | > 100 | 12 µM | > 100 µM | > 70 µM | > 100 µM | > 28.2 µM | > 100
4 | O=C(CSCC(=O)N/N=C/c1ccccc1O)N/N=C\c1ccccc1O | 2.95 µM | > 100 | 26.7 µM | > 100 µM | 1.91 µM | > 100 µM | 67.7 µM | > 100 µM | 3.06 µM | > 100 | 1.06 µM | > 100 µM | 2.1 µM | 23 µM | 1.83 µM | > 100
5 | CCOC(=O)Nc1nc2ccccc2[nH]1 | 10.5 µM and 4.83 µM | > 100 | 4.3 µM and 3.48 µM | > 100 µM | > 26.6 µM and 4.1 µM | > 100 µM | 3.01 µM and 2.61 µM | > 100 µM | 6.6 µM and 4.07 µM | > 100 | 5.34 µM and 4.52 µM | > 100 µM | 2.63 µM and 2.92 µM | 9.69 µM and > 32.1 µM | 11.3 µM and > 27 µM | > 100
6 | CCC1C(C)C=NN1c1nc(N)nc(C(C#N)=Nc2ccc(N(C)C)cc2)n1 (centres undefined) | > 50 µM | > 50 | – | – | 30.9 µM | > 50 µM | 8.95 µM | 22.6 µM | 2.53 µM | 10.1 | 16.5 µM | > 50 µM | 1.03 µM | 5.97 µM | 10.6 µM | 18.9
7 | C=C1c2ccccc2C(=O)c2c1c1c(C(=O)OC)c(OC(=O)OCc3ccc([N+](=O)[O-])cc3)ccc1n2Cc1ccccc1 | 20.3 µM | 80.9 | 4.69 µM | > 100 µM | 14 µM | 41.9 µM | – | – | 0.329 µM | 4.4 | 4.48 µM | 20.4 µM | 6.47 µM | 32.3 µM | 21.1 µM | > 100
8 | O=C(Nc1cccc(-n2cc(-c3ccncc3)c(-c3ccc(O)c(Cl)c3)n2)c1)c1ccc2c(c1)OCCO2 | > 100 µM | > 100 | 6.01 µM | > 100 µM | > 100 µM | > 100 µM | 4 µM | > 100 µM | 7.3 µM | > 100 | 5.44 µM | > 100 µM | 6.63 µM | > 100 µM | > 100 µM | > 100
9 | C=CC(COC(=O)C(C)(C)OC(C)=O)c1ccc(OC(=O)C(C)C)c(OC)c1 (centres undefined) | – | 23.2 | – | 50.8 µM | – | 34.3 µM | – | 22.2 µM | – | 27 | – | > 48.9 µM | – | 27.5 µM | – | 24.8
10 | O=C1/C=C/[C@@H](O)[C@@H]2C[C@@H](O)C[C@H]2/C=C/CCC[C@H](CCc2ccc3ncccc3c2)O1 | 0.4 µM | > 100 | 1.23 µM | > 100 µM | 0.394 µM | > 34 µM | 0.101 µM | > 29.8 µM | 0.313 µM | > 36 | 0.245 µM | 0.693 µM | 0.495 µM | > 100 µM | 0.265 µM | 0.821
11 | CN(C)C(=O)OCc1nc2c(N3CCOCC3)nc(-c3ccccc3)nc2n1C | 1.53 µM | 2.93 | 1.42 µM | 4.33 µM | 0.618 µM | 1.92 µM | 1.1 µM | 2.37 µM | 0.507 µM | 1.31 | 0.204 µM | 0.616 µM | 1.4 µM | 2.72 µM | 1.46 µM | 2.81
12 | Cc1cc(-c2nnc(/C=C/c3ccc4c(c3)OCO4)o2)n[nH]1 | 32.6 µM | > 50 | 9.64 µM | 47 µM | 9.57 µM | > 50 µM | 9.02 µM | 36.2 µM | 7.87 µM | > 50 | 11.9 µM | > 50 µM | 12.5 µM | > 50 µM | 22.3 µM | > 50
13 | NCCCCCNc1noc(Cc2c[nH]c3cc(Br)ccc23)n1 | 7.67 µM | 25.6 | 1.99 µM | 22.1 µM | 5.09 µM | 27.4 µM | – | – | 3.2 µM | 45.7 | 0.675 µM | 13.4 µM | 2.15 µM | 5.84 µM | 7.66 µM | 22.3
14 | CC(=O)Oc1ccc2c(c1)[C@@]1(C)CCCC(C)(C)[C@@H]1CC2 | 19.6 µM | 39.4 | 24.7 µM | 56.5 µM | 49.4 µM | > 100 µM | – | – | 20.1 µM | 39 | 18.4 µM | 32.8 µM | – | – | – | –
15 | CN1CCN(c2ccc(OC(F)(F)F)c(Nc3ncc4c(n3)-c3c(c(C(N)=O)nn3CCO)CC4)c2)CC1 | 0.0611 µM and 0.0674 µM | > 100 | 0.164 µM and 0.184 µM | 18.5 µM and > 5 µM | – | 46.6 µM and > 10 µM | 0.0582 µM and 0.145 µM | 11.7 µM and 1.49 µM | 0.0663 µM and 0.0986 µM | > 82.4 | 0.0353 µM and 0.0452 µM | 18.7 µM and > 10 µM | 0.0363 µM and 0.0682 µM | 12.4 µM and > 4.8 µM | – | –
16 | O=C1/C(=C/c2ccc3c(c2)OCCO3)CCC/C1=C\c1ccc2c(c1)OCCO2 | – | > 100 | – | – | – | > 100 µM | – | 66.9 µM | – | – | – | 7.85 µM | – | 38.6 µM | – | > 100
17 | N#CC1=C(N)NC(=S)NC1c1ccc(-c2ccc(-c3nc4ccccc4o3)cc2)s1 (centres undefined) | 13.3 µM | > 50 | 16.1 µM | 45.1 µM | 2.21 µM | 12.7 µM | – | – | 9.78 µM | > 50 | 7.71 µM | 14.4 µM | – | – | 18.6 µM | > 50
18 | [N-]=[N+]=NCCCn1c2c(c3ccc([N+](=O)[O-])cc3c1=O)C(=O)c1cc3c(cc1-2)OCO3 | – | > 100 | – | – | 0.165 µM | 1.46 µM | – | > 100 µM | 2.24 µM | > 100 | < 0.01 µM | 1.18 µM | < 0.0171 µM | < 0.0363 µM | 2.26 µM | 19.9
19 | Nc1nonc1-c1nc2ccccc2n1Cc1ccc(F)cc1 | 14.6 µM | > 100 | 3.18 µM | > 100 µM | 5.25 µM | > 100 µM | 1.41 µM | 9.52 µM | – | – | 4.81 µM | > 100 µM | 8.14 µM | > 100 µM | 6.78 µM | > 100
20 | COc1cc(Cl)cc(-c2nn(-c3cccc(NC(=O)Nc4cccc(C(F)(F)F)c4)c3)cc2-c2ccncc2)c1 | 2.77 µM | 35.9 | 4.06 µM | > 100 µM | 2.86 µM | 22.7 µM | 1.78 µM | 13.9 µM | 0.417 µM | 3.2 | 0.754 µM | 7.61 µM | 1.9 µM | 4.82 µM | – | –
21 | COc1ccc(/C(C)=N/NC(=O)CSc2nc3ccccc3c(=O)n2CCc2ccc(S(N)(=O)=O)cc2)cc1 | 2.27 µM | 4.78 | 2.24 µM | 6.2 µM | 1.97 µM | 3.98 µM | 1.81 µM | 4.26 µM | 1.98 µM | 4.15 | – | – | 1.69 µM | 3.16 µM | 1.95 µM | 3.98
22 | Nc1ncnc2c1ncn2C1OC(COS(N)(=O)=O)C(O)C1O (centres undefined) | < 0.001 µM | – | – | – | 0.00291 µM and 0.0248 µM | 0.00781 µM and 0.065 µM | 0.00255 µM and 0.0194 µM | 0.0083 µM and 0.0565 µM | 0.0243 µM | 0.0587 | 0.00252 µM and 0.0248 µM | 0.0156 µM and 0.0656 µM | – | – | – | –
23 | CCN(CC)c1c(-c2ccccc2)n[nH]c1C(=O)OC | 46.4 µM | > 100 | 17 µM | 49.4 µM | 50.8 µM | > 100 µM | 33.9 µM | > 100 µM | 31.2 µM | > 100 | – | – | 20.1 µM | 36.5 µM | 22.5 µM | 59.2
24 | NCCCOc1cc2ccccc2cc1C(=O)Nc1ccc(Cl)cc1OC(=O)c1cc2ccccc2cc1OCCCN | 0.766 µM | 2.19 | – | – | – | – | 0.119 µM | 0.859 µM | 0.575 µM | 1.58 | 0.175 µM | 0.313 µM | 0.345 µM | 0.9 µM | 0.545 µM | 1.07
